Earlier results, collected in patent US4380638A, “Chemical compounds” (Bristol-Myers Company, priority 1981, dated 1983).

What was measured:
[1] = test system: peptic ulcer disease; details: Gray et al., Lancet, 1, 8001 (1977)
[2] = test system: H2 -receptor
[3] = agranulocytosis
[4] = test system: H2 -receptor; details: man

Compound | oral absorption | clinical effectiveness in peptic ulcer disease [1] | H2-antagonist potency/effectiveness relative to another drug [2] | toxicity [3] | oral activity [4]
CNC(=S)NCCCCc1cnc[nH]1 [Burimamide] | poor |  |  |  | 
CNC(=NC#N)NCCSCc1[nH]cnc1C [Cimetidine] |  | effective therapeutic agent in the treatment of peptic ulcer disease | as effective an H2 -antagonist as metiamide | without producing agranulocytosis | 
CNC(=S)NCCSCc1[nH]cnc1C [Metiamide] |  |  | more potent than burimamide | agranulocytosis | orally active in man
